{"source": "ChEMBL document CHEMBL1201862", "about": "“PubChem BioAssay data set” (2004)", "key": {"Hexokinase HKDC1": {"target": "T1, Hexokinase HKDC1 (Homo sapiens, UniProt Q2TB90)", "T1 sequence (Q2TB90 whole entry)": "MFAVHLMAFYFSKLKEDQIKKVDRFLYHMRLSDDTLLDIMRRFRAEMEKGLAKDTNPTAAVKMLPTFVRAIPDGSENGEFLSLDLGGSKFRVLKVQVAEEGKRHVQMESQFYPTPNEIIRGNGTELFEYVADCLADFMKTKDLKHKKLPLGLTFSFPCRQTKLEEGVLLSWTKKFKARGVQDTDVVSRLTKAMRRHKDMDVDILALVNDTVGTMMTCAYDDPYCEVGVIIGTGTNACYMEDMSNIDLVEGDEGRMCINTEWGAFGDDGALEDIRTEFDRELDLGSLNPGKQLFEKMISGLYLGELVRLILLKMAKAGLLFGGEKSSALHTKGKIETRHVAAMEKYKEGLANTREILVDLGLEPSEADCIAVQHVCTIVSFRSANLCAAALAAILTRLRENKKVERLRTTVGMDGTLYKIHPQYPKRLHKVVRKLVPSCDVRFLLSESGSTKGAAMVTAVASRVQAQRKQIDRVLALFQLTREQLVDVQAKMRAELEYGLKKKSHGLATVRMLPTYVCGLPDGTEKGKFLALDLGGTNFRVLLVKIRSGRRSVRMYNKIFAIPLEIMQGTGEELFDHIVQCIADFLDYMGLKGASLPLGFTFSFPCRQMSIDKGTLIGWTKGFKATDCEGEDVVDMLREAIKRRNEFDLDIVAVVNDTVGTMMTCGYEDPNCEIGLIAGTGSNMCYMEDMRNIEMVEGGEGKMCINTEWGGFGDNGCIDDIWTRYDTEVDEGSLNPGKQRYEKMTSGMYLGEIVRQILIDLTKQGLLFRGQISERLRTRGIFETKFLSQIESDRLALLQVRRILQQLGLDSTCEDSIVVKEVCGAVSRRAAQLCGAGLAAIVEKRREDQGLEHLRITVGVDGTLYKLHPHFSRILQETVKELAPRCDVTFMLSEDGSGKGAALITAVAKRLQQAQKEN", "experiment": "activation of HKDC1 glucose phosphorylation – biochemical, W721R variant, dose response (AID 504730)", "type": "functional"}, "[1]": {"target": "Hepatocyte nuclear factor 4-alpha (Homo sapiens, UniProt P41235)", "type": "functional, cell-based"}, "cells [2]": {"experiment": "cells", "type": "functional, cell-based"}, "[3]": {"target": "Hepatocyte growth factor receptor (Homo sapiens, UniProt P08581)", "type": "functional"}, "[4]": {"target": "Serine/threonine-protein kinase PLK1 (Homo sapiens, UniProt P53350)", "type": "functional"}, "[5]": {"target": "PAS domain-containing serine/threonine-protein kinase (Homo sapiens, UniProt Q96RG2)", "type": "functional"}, "[6]": {"target": "Tyrosine-protein kinase SYK (Homo sapiens, UniProt P43405)", "type": "functional"}, "[7]": {"target": "Phosphorylase b kinase gamma catalytic chain, liver/testis isoform (Homo sapiens, UniProt P15735)", "type": "functional"}, "[8]": {"target": "RAC-alpha serine/threonine-protein kinase (Homo sapiens, UniProt P31749)", "sequence (P31749 whole entry)": "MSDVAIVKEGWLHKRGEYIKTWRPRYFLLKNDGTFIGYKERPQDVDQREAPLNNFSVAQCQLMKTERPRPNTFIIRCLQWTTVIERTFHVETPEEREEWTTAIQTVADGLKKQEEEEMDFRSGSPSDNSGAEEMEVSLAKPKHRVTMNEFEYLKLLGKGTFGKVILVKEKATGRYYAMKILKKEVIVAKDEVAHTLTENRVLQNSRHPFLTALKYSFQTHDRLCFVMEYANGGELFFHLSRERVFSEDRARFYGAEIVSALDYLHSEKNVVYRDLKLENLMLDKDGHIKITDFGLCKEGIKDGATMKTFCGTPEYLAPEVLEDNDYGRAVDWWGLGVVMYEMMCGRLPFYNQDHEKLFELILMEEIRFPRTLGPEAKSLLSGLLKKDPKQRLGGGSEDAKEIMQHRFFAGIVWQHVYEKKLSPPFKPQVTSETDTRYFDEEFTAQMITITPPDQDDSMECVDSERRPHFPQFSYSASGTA", "type": "functional"}, "Aurora kinase B": {"target": "Aurora kinase B (Homo sapiens, UniProt Q96GD4)", "type": "functional"}, "[9]": {"target": "Serine/threonine-protein kinase MRCK alpha (Homo sapiens, UniProt Q5VT25)", "type": "functional"}, "[10]": {"target": "Ribosomal protein S6 kinase alpha-5 (Homo sapiens, UniProt O75582)", "type": "functional"}, "[11]": {"target": "Calcium/calmodulin-dependent protein kinase type II subunit delta (Homo sapiens, UniProt Q13557)", "type": "functional"}, "[12]": {"target": "Testis-specific serine/threonine-protein kinase 2 (Homo sapiens, UniProt Q96PF2)", "sequence (Q96PF2 whole entry)": "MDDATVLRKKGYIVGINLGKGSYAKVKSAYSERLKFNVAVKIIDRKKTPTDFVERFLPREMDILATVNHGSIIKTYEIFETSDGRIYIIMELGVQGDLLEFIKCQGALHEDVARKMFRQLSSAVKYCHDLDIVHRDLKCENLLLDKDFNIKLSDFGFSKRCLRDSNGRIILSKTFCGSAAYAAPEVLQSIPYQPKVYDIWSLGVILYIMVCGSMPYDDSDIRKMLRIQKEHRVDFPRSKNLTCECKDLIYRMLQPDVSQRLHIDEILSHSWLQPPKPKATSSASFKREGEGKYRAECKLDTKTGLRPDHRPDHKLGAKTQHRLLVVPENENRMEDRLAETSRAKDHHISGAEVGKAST", "type": "functional"}, "[13]": {"target": "Cell division cycle 7-related protein kinase (Homo sapiens, UniProt O00311)", "type": "functional"}, "[14]": {"target": "Casein kinase II subunit alpha (Homo sapiens, UniProt P68400)", "type": "functional"}, "[15]": {"target": "Dual specificity tyrosine-phosphorylation-regulated kinase 4 (Homo sapiens, UniProt Q9NR20)", "sequence (Q9NR20 whole entry)": "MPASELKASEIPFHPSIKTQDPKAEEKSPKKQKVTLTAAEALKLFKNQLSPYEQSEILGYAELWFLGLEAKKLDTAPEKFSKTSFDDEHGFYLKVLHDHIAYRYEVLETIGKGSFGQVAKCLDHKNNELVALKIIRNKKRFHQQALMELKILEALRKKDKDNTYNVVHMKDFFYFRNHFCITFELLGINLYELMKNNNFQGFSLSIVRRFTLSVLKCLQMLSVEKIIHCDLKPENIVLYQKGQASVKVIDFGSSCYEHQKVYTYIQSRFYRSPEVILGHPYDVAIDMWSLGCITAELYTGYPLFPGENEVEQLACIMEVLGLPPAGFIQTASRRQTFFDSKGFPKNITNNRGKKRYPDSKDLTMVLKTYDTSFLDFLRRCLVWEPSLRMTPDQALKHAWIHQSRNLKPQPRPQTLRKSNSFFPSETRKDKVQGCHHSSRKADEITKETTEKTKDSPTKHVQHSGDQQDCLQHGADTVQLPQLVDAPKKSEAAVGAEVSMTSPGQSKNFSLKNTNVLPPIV", "type": "functional"}, "[16]": {"target": "Serine/threonine-protein kinase 3 (Homo sapiens, UniProt Q13188)", "type": "functional"}, "[17]": {"target": "Casein kinase I isoform gamma-1 (Homo sapiens, UniProt Q9HCP0)", "type": "functional"}, "[18]": {"target": "Calcium/calmodulin-dependent protein kinase type II subunit gamma (Homo sapiens, UniProt Q13555)", "sequence (Q13555 whole entry)": "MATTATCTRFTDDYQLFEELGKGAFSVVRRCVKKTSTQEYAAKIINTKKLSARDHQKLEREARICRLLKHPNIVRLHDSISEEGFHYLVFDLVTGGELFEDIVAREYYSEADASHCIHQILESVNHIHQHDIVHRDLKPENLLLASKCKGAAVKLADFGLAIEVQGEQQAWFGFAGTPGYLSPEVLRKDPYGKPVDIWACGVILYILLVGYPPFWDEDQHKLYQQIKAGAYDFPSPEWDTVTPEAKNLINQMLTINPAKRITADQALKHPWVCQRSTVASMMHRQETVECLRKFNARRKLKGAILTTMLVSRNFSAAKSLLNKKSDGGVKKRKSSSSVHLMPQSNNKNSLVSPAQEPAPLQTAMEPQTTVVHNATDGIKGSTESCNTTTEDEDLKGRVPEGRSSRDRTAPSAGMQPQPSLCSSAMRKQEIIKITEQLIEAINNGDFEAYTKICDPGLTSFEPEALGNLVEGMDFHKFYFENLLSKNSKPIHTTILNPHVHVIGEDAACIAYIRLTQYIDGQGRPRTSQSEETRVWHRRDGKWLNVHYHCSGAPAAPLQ", "type": "functional"}, "Misshapen-like kinase 1": {"target": "Misshapen-like kinase 1 (Homo sapiens, UniProt Q8N4C8)", "sequence (Q8N4C8 whole entry)": "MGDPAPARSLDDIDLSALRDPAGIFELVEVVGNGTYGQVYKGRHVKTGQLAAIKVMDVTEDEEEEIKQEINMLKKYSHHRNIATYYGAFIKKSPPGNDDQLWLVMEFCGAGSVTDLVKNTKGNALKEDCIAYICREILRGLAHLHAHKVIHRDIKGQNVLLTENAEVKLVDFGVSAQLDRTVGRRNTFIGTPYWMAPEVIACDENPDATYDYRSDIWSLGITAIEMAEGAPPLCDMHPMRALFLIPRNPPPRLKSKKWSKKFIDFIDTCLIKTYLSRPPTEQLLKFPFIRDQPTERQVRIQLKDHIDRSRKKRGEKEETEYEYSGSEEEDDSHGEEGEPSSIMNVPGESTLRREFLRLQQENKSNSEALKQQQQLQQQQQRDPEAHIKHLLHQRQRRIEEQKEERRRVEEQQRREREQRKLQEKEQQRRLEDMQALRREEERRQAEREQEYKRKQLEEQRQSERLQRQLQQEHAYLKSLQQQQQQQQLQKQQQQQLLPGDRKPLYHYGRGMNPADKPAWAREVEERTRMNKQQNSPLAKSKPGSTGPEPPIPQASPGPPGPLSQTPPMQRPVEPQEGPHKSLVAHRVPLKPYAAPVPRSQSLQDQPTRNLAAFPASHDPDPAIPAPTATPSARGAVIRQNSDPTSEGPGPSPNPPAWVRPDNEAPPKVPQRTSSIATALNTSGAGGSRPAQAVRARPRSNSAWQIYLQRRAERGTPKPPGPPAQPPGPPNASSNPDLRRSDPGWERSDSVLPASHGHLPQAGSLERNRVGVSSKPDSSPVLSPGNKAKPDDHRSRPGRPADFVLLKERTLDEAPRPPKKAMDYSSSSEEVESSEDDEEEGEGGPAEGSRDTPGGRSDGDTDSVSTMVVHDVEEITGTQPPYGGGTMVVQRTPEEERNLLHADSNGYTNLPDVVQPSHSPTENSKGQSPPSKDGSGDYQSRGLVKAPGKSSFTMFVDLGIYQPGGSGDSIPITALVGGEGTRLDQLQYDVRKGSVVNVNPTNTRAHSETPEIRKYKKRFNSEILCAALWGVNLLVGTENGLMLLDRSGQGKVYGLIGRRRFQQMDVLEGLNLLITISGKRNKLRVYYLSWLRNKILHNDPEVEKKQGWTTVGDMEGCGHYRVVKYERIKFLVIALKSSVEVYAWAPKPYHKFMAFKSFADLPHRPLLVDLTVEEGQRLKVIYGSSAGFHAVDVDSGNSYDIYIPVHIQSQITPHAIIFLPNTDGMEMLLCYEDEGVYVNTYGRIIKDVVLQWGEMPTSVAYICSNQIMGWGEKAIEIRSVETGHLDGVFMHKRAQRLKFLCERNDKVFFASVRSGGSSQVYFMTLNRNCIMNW", "type": "functional"}, "Focal adhesion kinase 1": {"target": "Focal adhesion kinase 1 (Homo sapiens, UniProt Q05397)", "type": "functional"}, "[19]": {"target": "Serine/threonine-protein kinase pim-2 (Homo sapiens, UniProt Q9P1W9)", "sequence (Q9P1W9 whole entry)": "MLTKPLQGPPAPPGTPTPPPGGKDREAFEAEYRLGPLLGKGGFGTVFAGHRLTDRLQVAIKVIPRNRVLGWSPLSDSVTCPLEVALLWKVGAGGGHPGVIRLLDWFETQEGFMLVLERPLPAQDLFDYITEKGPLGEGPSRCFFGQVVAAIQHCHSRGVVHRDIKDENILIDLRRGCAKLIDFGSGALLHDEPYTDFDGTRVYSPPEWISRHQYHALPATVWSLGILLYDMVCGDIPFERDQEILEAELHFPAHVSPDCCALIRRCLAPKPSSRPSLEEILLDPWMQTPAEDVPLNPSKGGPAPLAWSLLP", "type": "functional"}, "[20]": {"target": "Mitogen-activated protein kinase 1 (Homo sapiens, UniProt P28482)", "sequence (P28482 whole entry)": "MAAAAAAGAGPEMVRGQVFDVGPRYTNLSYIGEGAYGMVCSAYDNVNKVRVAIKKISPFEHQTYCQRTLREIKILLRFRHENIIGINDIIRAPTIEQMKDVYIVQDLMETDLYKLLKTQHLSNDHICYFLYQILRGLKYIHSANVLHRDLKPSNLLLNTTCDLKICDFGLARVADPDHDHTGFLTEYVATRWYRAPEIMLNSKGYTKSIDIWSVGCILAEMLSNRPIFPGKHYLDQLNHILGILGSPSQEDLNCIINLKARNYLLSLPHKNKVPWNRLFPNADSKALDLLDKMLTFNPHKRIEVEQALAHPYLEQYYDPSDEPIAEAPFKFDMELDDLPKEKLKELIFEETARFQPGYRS", "type": "functional"}, "[21]": {"target": "Serine/threonine-protein kinase Nek2 (Homo sapiens, UniProt P51955)", "type": "functional"}, "[22]": {"target": "Rho-associated protein kinase 1 (Homo sapiens, UniProt Q13464)", "type": "functional"}, "[23]": {"target": "Mitogen-activated protein kinase kinase kinase kinase 2 (Homo sapiens, UniProt Q12851)", "type": "functional"}, "[24]": {"target": "Receptor-type tyrosine-protein kinase FLT3 (Homo sapiens, UniProt P36888)", "type": "functional"}, "[25]": {"target": "Tyrosine-protein kinase Blk (Homo sapiens, UniProt P51451)", "sequence (P51451 whole entry)": "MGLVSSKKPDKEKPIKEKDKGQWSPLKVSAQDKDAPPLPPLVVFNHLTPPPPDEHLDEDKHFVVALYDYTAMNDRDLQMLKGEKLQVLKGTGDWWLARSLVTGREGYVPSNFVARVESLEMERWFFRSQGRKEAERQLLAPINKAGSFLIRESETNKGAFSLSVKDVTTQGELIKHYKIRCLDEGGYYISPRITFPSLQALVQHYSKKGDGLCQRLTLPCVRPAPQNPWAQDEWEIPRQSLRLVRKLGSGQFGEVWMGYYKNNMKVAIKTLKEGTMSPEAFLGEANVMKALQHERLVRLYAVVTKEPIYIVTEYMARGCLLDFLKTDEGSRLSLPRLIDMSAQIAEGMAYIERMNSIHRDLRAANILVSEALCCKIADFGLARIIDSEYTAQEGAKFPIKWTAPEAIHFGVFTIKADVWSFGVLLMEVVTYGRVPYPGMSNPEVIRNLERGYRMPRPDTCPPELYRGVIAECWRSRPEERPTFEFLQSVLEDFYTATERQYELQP", "type": "functional"}, "[26]": {"target": "Sphingosine 1-phosphate receptor 1 (Homo sapiens, UniProt P21453)", "sequence (P21453 whole entry)": "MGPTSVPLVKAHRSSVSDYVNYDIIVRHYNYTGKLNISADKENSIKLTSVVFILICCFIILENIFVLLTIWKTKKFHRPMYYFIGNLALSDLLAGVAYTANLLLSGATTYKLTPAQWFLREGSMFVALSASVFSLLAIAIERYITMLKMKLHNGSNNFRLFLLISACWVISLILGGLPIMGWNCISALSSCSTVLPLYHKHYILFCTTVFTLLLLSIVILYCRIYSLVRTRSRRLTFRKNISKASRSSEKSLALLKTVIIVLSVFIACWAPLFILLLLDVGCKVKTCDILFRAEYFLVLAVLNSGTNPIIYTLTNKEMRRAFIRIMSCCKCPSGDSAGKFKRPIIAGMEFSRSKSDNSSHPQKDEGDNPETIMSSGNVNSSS", "type": "functional"}, "BJ": {"tested_on": "BJ", "experiment": "BJ-TERT fibroblast viability loss – cell-based, RAS-independent, luminescence, dose response (AID 1933)", "type": "functional", "conditions": "Homo sapiens"}, "[27]": {"target": "Kappa-type opioid receptor (Homo sapiens, UniProt P41145)", "type": "functional"}, "HeLa": {"tested_on": "HeLa", "experiment": "Cytotoxicity counterscreen assay for transcriptional activators of heat shock protein 70 (Hsp70). [Related pubchem assays: 1203, 1252 ]", "type": "functional", "conditions": "Homo sapiens"}, "[28]": {"experiment": "fluconazole-exposed Candida albicans growth modulators – fluorescence, retest, confirmation (AID 2467)", "type": "functional, cell-based"}, "cells [29]": {"experiment": "cells"}}, "note": "Activity calls are given as the source filed them.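 Wherever CC50 is given: cells exposed to compound for 16 hours before readout.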", "data": [{"compound": "O=C1C(Cl)=C(NCc2cccnc2)C(=O)c2ccccc21", "values": [{"measurement": "EC50", "setting": "Hexokinase HKDC1", "value": "9.25 µM (active)"}]}, {"compound": "Cc1ccc(C(=O)c2c(C)oc3c2C(=O)C(=O)c2ccccc2-3)cc1", "values": [{"measurement": "IC50", "setting": "[1]", "value": "5.42 µM (active)"}]}, {"compound": "Cc1cnc(NC(=O)c2sc3ccccc3c2Cl)s1", "values": [{"measurement": "IC50", "setting": "cells [2]", "value": "> 67.5 µM (inactive)"}]}, {"compound": "O=C1NC(=S)SC1=C1C(=O)Nc2ccc(Br)cc21", "values": [{"measurement": "Ki", "setting": "[3]", "value": "> 3.16 µM (inactive)"}, {"measurement": "Ki", "setting": "[4]", "value": "6.31 µM (active)"}, {"measurement": "Ki", "setting": "[5]", "value": "> 1.58 µM (inactive)"}, {"measurement": "Ki", "setting": "[6]", "value": "0.794 µM (active)"}, {"measurement": "Ki", "setting": "[7]", "value": "> 5.01 µM (inactive)"}, {"measurement": "Ki", "setting": "[8]", "value": "> 7.94 µM (inactive)"}, {"measurement": "Ki", "setting": "Aurora kinase B", "value": "2.51 µM (active)"}, {"measurement": "Ki", "setting": "[9]", "value": "> 10 µM (inactive)"}, {"measurement": "Ki", "setting": "[10]", "value": "> 2 µM (inactive)"}, {"measurement": "Ki", "setting": "[11]", "value": "1.26 µM (active)"}, {"measurement": "Ki", "setting": "[12]", "value": "> 1.58 µM (inactive)"}, {"measurement": "Ki", "setting": "[13]", "value": "> 1.26 µM (inactive)"}, {"measurement": "Ki", "setting": "[14]", "value": "0.631 µM (active)"}, {"measurement": "Ki", "setting": "[15]", "value": "> 7.94 µM (inactive)"}, {"measurement": "Ki", "setting": "[16]", "value": "2 µM (active)"}, {"measurement": "Ki", "setting": "[17]", "value": "> 6.31 µM (inactive)"}, {"measurement": "Ki", "setting": "[18]", "value": "0.501 µM (active)"}, {"measurement": "Ki", "setting": "Misshapen-like kinase 1", "value": "> 7.94 µM (inactive)"}, {"measurement": "Ki", "setting": "Focal adhesion kinase 1", "value": "> 1.58 µM (inactive)"}, {"measurement": "Ki", "setting": "[19]", "value": "0.251 µM (active)"}, {"measurement": "Ki", "setting": "[20]", "value": "> 7.94 µM (inactive)"}, {"measurement": "Ki", "setting": "[21]", "value": "> 10 µM (inactive)"}, {"measurement": "Ki", "setting": "[22]", "value": "5.01 µM (active)"}, {"measurement": "Ki", "setting": "[23]", "value": "> 6.31 µM (inactive)"}, {"measurement": "Ki", "setting": "[24]", "value": "0.158 µM (active)"}, {"measurement": "Ki", "setting": "[25]", "value": "> 1.58 µM (inactive)"}]}, {"compound": "Cc1ccc(Nc2cc(C)nn2-c2nc(C)cc(O)n2)cc1", "values": [{"measurement": "IC50", "setting": "[26]", "value": "0.764 µM (active)"}, {"measurement": "EC50", "setting": "BJ", "value": "0.549 µM (active)"}, {"measurement": "IC50", "setting": "[27]", "value": "> 32", "unit": "µM"}, {"measurement": "CC50", "setting": "HeLa", "value": "7.59 µM (active)"}, {"measurement": "EC50", "setting": "[28]", "value": "< 0.03 µM (active)"}, {"measurement": "EC50", "setting": "cells [29]", "value": "0.074 µM (active)"}]}]}
